Measured values taken from patent US8410287B2 (McNeil-PPC, Inc., priority 2010, dated 2013).

Tests used:
[1] = stability toward air: neutralization of the salt by CO2 and water to neutral Cel (Cel-III); format: physicochemical
Description: The behavior was first observed when using compressed air instead of nitrogen in the dynamic vapor sorption experiment, but it was also clear in samples stored open in controlled humidity chambers. The neutralization was minimized to get clean PXRD patterns by including small vials of concentrated NaOH solution within the closed humidity chambers to remove CO2 from the air. […] Throughout the conversion, both Cel-III and the sodium salt are clearly observed by PXRD with Cel-III growing slowly over time.

[2] = storage in controlled humidity chambers monitored by PXRD (physical form stability); format: physicochemical
Description: Indeed, understanding the behavior of the salt form before the single crystal structure was solved was challenging in that the powder patterns seemed to change almost daily, even when powders were equilibrated in humidity chambers prior to measurement. […] Consistent powder patterns were obtained by two distinct methods. In the first method, powder was filled into 0.5 mm capillary tubes, equilibrated in controlled humidity chambers for 1 week, sealed with silicone grease immediately upon removal from the humidity chambers, and measured immediately with a transmission powder X-ray diffractometer. In the second, a sample was monitored by a reflectance mode powder X-ray diffractometer fitted with a controlled humidity stage. The two methods were complimentary. The capillary method provided high resolution patterns without preferred orientation effects. However, the humidity control was coarse and was limited to conditions that could be achieved with standard saturated salt solutions.
The rate of conversion to Cel-NaPG(H2O)3 is very slow at 18% RH and increases to the point where conversion takes less than one day at 54% RH or higher.

[3] = Dynamic Vapor Sorption (DVS) moisture sorption analysis; format: physicochemical
Procedure: Moisture sorption analysis was performed using a Dynamic Vapor Sorption apparatus (Surface Measurement Systems, Monarch Beach, Calif.). Each sample was placed in a clean glass crucible and equilibrated in the apparatus at a specified RH level. Varying the flow rates of dry nitrogen gas and saturated wet nitrogen gas streams controlled RH; the total combined flow rate was kept constant at 200 standard […] per minute. After initial equilibration, RH was varied and change in mass was recorded over time as an indication of moisture sorption. Mass equilibration at each humidity level was determined as a change in mass less than ±2×10^−5 grams over a time interval of 1 minute (dm/dt of 0.002% min). After the assay, the change in mass was mathematically converted to water molar equivalents per dry compound molar equivalent.
The dynamic vapor sorption profiles were measured starting with Cel-NaPG at 0% RH, and for Cel-NaPG(H2O)3 beginning at 20% RH to avoid dehydrating it prior to the first absorption cycle. The profiles are shown in FIG. 12 alongside PXRD patterns for samples of Cel-NaPG stored in controlled humidity chambers for 1-2 days.

[4] = 1H NMR determination of Cel:PG ratio after exposure to 0% RH and 40% RH in the DVS; format: physicochemical
Procedure: ^1H NMR measurements were conducted using a Varian 400 MHz spectrometer with averaging of 128 scans. Samples were prepared as 10 mg/ml solutions of Cel in CDCl3.
Increased lability and loss of PG during the transition from anhydrous to trihydrate was believed to be the most likely explanation for the weight loss. ^1H NMR was used to determine whether the PG solvate is lost continuously throughout the humidity cycle or only during change in the hydration state. Cel-NaPG and Cel-NaPG(H2O)3 were exposed to 0% RH and 40% RH in the DVS and then dissolved in methanol-d4 for NMR analysis. The Cel:PG ratio was stable at 1/1 for Cel-NaPG(H2O)3 after treatment for either four hours at 40% RH or 18 hours at 0% RH. […] Since the Cel-NaPG(H2O)3 has a wide range of physical stability, conversion from the trihydrate to the anhydrous and then back to the trihydrate should be a rare event. In a closed system such as a packaged tablet, PG should not be lost as easily as it is in the dynamic environment of the DVS where gases continuously flow over the sample to carry away any volatile components.

TGA = format: physicochemical
physchem = details: aqueous sodium hydroxide solution, pH 12, aqueous buffer
[5] = cited from earlier work

Cc1ccc(-c2cc(C(F)(F)F)nn2-c2ccc(S(N)(=O)=O)cc2)cc1 [Cel-Na(H2O)x]
physical stability in a sealed vial ([1]; sealed vial): physically stable

CC(O)CO.Cc1ccc(-c2cc(C(F)(F)F)nn2-c2ccc(S([NH-])(=O)=O)cc2)cc1.O.O.O.[Na+] [Cel-NaPG(H2O)3, propylene glycol solvate of celecoxib sodium trihydrate]
reaction with CO2 and water in the air [1]: resistant to reaction with CO2 and water in the air | conversion to neutral Cel ([1]; after 4 days at 45 66% RH): no conversion was observed | conversion to Cel-NaPG (dehydration) ([2]; 4 days of storage over the 18% RH salt bath): no conversion to Cel-NaPG | reversible weight gain ([3]; between 10 and 70% RH at 25° C.): 1.2 % weight | loss of dry weight after a single humidity cycle ([3]; started at 20% RH, single humidity cycle): no loss was seen

CC(O)CO.Cc1ccc(-c2cc(C(F)(F)F)nn2-c2ccc(S([NH-])(=O)=O)cc2)cc1.[Na+] [Cel-NaPG]
PG lost ([4]; over four hours at 40% RH): 8.2% | stability of PG content ([4]; stream of dry nitrogen for 18 hours (0% RH)): remaining stable | temperature until which PG is retained (TGA) (TGA; under a flow of nitrogen): approximately 80 °C | water gained (TGA) (TGA; within 1 day, stored in a 38% RH chamber): about 2 equiv | time for conversion to Cel-NaPG(H2O)3 ([2]; 54% RH or higher): less than one | additional weight loss after going through the entire DVS profile ([3]; 25° C., after desorption): 2 % weight | weight gain during adsorption ([3]; DVS profile started at 0% RH, 25° C.): ~14 % weight

Cc1ccc(-c2cc(C(F)(F)F)nn2-c2ccc(S(N)(=O)=O)cc2)cc1 [celecoxib]
solubility (physchem): ≥ 380 mg/mL | aqueous solubility of celecoxib at physiological pH [5]: < 0.5 μg/ml
